Assay results as given in patent publication US8252563B2, “Reductase, gene thereof and method of using the same” (Sumitomo Chemical Company, Limited, priority 2007, dated 2012).

Experiments:
[1] = system: purified invented protein (active fragment (C)); assay: Substrate specificity: reduction activity of the invented protein on carbonyl compounds (NADPH absorbance decrease at 340 nm); type: biochemical, Stenotrophomonas sp. SC-1 strain
[2] = Optimal pH of the reduction activity on ethyl benzoylformate; type: biochemical; settings: ethyl benzoylformate 10 mM, NADPH 0.5 mM, pH 5.5 to 10, 30° C., 1 minute, 340 nm
[3] = substrate 1 mM, NADPH 0.5 mM, 100 mM phosphate buffer pH 7, 30° C., 5 minutes, relative value, activity on ethyl benzoylformate = 100%

| Molecule | Relative activity (%) [1, 3] [%] | further results |
| --- | --- | --- |
| CCC=O [Propionaldehyde] | 8.6 |  |
| O=C(O)CCC(=O)c1ccccc1 [3-Benzoylpropionic acid] | 3.3 |  |
| COC(=O)CC(=O)CBr [Methyl 4-bromo-3-oxobutyrate] | 3.9 |  |
| CCOC(=O)CC(=O)CCl [Ethyl 4-chloro-3-oxobutyrate] |  | Relative activity (%) ([1]; pH 7): 0.5% |
| CCOC(=O)C(C)=O [Ethyl pyruvate] | 33.7 |  |
| CCOC(=O)C(=O)CCc1ccccc1 [Ethyl 4-phenyl2-oxobutyrate] | 1.5 |  |
| CCOC(=O)C(=O)c1ccccc1 [Eethyl benzoylformate, ethyl benzoylformate] | 100 |  |
| invented protein (active fragment (C)): purified reductase (SEQ ID NO:1) of Stenotrophomonas sp. SC-1, expressed in E. coli HB101 with plasmid pTrcRs (protein, listed as Stenotrophomonas sp.) MTATRELGRSGLHVAPIAFGGNVFGWSADEKTSFALLDAFVEAGFNLVDTADVYSAWVPGNQGGESETILGRWFKHSGKRDKVVLATKVAKWSEHPGLSADNITAAVEDSLRRLQTDVIDLYQAHEDDESTPLESTLAAFGRLIEQGKVRAIGASNYSAERLSDALKVSADYKLPRYETLQPEYNLYDRAGYEAGLEAVVRDAQLGVISYYSLASGFLSGKYRSAADAGKSSARGQSVVDKYVNPRGLRILGALDDVASTHGVSPSQIAIAWLIARPGITAPIVSATSVEQLNDVLAAAKVALSAQEVQQLDAASAEQA |  | optimal pH [2]: 7.0 |
